# From US10442803B2, “Tricyclic heterocycles as bet protein inhibitors” (Incyte Corporation, priority 2013, dated 2019)
# Test system: KMS.12.BM cells
# Assay: KMS.12.BM cell viability assay
# Type: cell-based
# Details: 72 h; KMS.12.BM human myeloma cells, 3 days, Cell Titer-GLO ATP quantitation; read-out: KMS cellular IC50
# Method: KMS.12.BM cell line (human myeloma) was purchased from JCRB (Osaka, Japan) and maintained in RPMI with 10% FBS culture medium. To measure the cytotoxic activity of the compounds through ATP quantitation, the KMS.12.BM cells are plated in the RPMI culture medium at 5000 cells/well/per 100 μL into a 96-well polystyrene clear black tissue culture plate (Greiner-bio-one through VWR, NJ), in the presence or absence of a concentration range of test compounds. After 3 days, […] Cell Titer-GLO Luminescent (Promega, Madison, Wis.) cell culture agent is added to each well for 10 minutes at room temperature to stabilize the luminescent signal. This determines the number of viable cells in culture based on quantitation of the ATP present, which signals the presence of metabolically active cells. Luminescence is measured with the Top Count 384 (Packard Bioscience through Perkin Elmer, Boston, Mass.).
# IC50 data for the Examples is presented in Table 4 as determined by Assay B1.
row,Structure (SMILES),IC50 [µM]
1,"Cc1nnc2ccc3c(cc(-c4cn(C)cn4)n3Cc3ccccc3)n12 [Example 70, 6-benzyl-1-methyl-7-(1-methyl-1H-imidazol-4-yl)-6H-pyrrolo[2,3-e][1,2,4]triazolo[4,3-a]pyridine]",≤ 1
2,"Cc1nnc2ccc3c(cc(-c4ccsc4)n3Cc3ccccc3)n12 [Example 72, 6-benzyl-1-methyl-7-(3-thienyl)-6H-pyrrolo[2,3-e][1,2,4]triazolo[4,3-a]pyridine]",≤ 1
3,"Cc1nnc2ccc3c(cc(-c4cccs4)n3Cc3ccccc3)n12 [Example 73, 6-benzyl-1-methyl-7-(2-thienyl)-6H-pyrrolo[2,3-e][1,2,4]triazolo[4,3-a]pyridine]",≤ 1
4,"Cc1nnc2ccc3c(cc(-c4c[nH]cn4)n3Cc3ccccc3)n12 [Example 74, 6-benzyl-7-(1H-imidazol-4-yl)-1-methyl-6H-pyrrolo[2,3-e][1,2,4]triazolo[4,3-a]pyridine]",≤ 1
5,"Cc1nnc2ccc3c(cc(-c4cn(CCN5CCOCC5)cn4)n3Cc3ccccc3)n12 [Example 75, 6-benzyl-1-methyl-7-[1-(2-morpholin-4-ylethyl)-1H-imidazol-4-yl]-6H-pyrrolo[2,3-e][1,2,4]triazolo[4,3-a]pyridine]",≤ 1
6,"Cc1nnc2ccc3c(cc(-c4ccn(C)n4)n3Cc3ccccc3)n12 [Example 76, 6-benzyl-1-methyl-7-(1-methyl-1H-pyrazol-3-yl)-6H-pyrrolo[2,3-e][1,2,4]triazolo[4,3-a]pyridine]",≤ 1
7,"Cc1nnc2ccc3c(cc(-c4ccn(CCN5CCOCC5)n4)n3Cc3ccccc3)n12 [Example 77, 6-benzyl-1-methyl-7-[1-(2-morpholin-4-ylethyl)-1H-pyrazol-3-yl]-6H-pyrrolo[2,3-e][1,2,4]triazolo[4,3-a]pyridine]",≤ 1
8,"Cc1nnc2ccc3c(cc(-c4ccn(CCC#N)n4)n3Cc3ccccc3)n12 [Example 78, 3-[3-(6-benzyl-1-methyl-6H-pyrrolo[2,3-e][1,2,4]triazolo[4,3-a]pyridin-7-yl)-1H-pyrazol-1-yl]propanenitrile]",≤ 1
9,"CCn1ccc(-c2cc3c(ccc4nnc(C)n43)n2Cc2ccccc2)n1 [Example 79, 6-benzyl-7-(1-ethyl-1H-pyrazol-3-yl)-1-methyl-6H-pyrrolo[2,3-e][1,2,4]triazolo[4,3-a]pyridine]",≤ 1
10,"CCn1cnc(-c2cc3c(ccc4nnc(C)n43)n2Cc2ccccc2)c1 [Example 80, 6-benzyl-7-(1-ethyl-1H-imidazol-4-yl)-1-methyl-6H-pyrrolo[2,3-e][1,2,4]triazolo[4,3-a]pyridine]",≤ 1
11,"Cc1nnc2ccc3c(cc(-c4cn(CCC#N)cn4)n3Cc3ccccc3)n12 [Example 81, 3-[4-(6-benzyl-1-methyl-6H-pyrrolo[2,3-e][1,2,4]triazolo[4,3-a]pyridin-7-yl)-1H-imidazol-1-yl]propanenitrile]",≤ 1
12,"CNC(=O)c1cc2c(ccc3nnc(C)n32)n1Cc1ccccc1 [Example 82, 6-benzyl-N,1-dimethyl-6H-pyrrolo[2,3-e][1,2,4]triazolo[4,3-a]pyridine-7-carboxamide]",≤ 1
13,"CCCNC(=O)c1cc2c(ccc3nnc(C)n32)n1Cc1ccccc1 [Example 83, 6-benzyl-1-methyl-N-propyl-6H-pyrrolo[2,3-e][1,2,4]triazolo[4,3-a]pyridine-7-carboxamide]",≤ 1
14,"Cc1nnc2ccc3c(cc(C(=O)NC4CCC4)n3Cc3ccccc3)n12 [Example 85, 6-benzyl-N-cyclobutyl-1-methyl-6H-pyrrolo[2,3-e][1,2,4]triazolo[4,3-a]pyridine-7-carboxamide]",≤ 1
15,"Cc1nnc2ccc3c(cc(-c4ccn(CCN(C)C)n4)n3Cc3ccccc3)n12 [Example 89, 2-[3-(6-benzyl-1-methyl-6H-pyrrolo[2,3-e][1,2,4]triazolo[4,3-a]pyridin-7-yl)-1H-pyrazol-1-yl]-N,N-dimethylethanamine]",≤ 1
16,"Cc1nnc2ccc3c(cc(-c4ccn(C5(CC#N)CNC5)n4)n3Cc3ccccc3)n12 [Example 90, {3-[3-(6-benzyl-1-methyl-6H-pyrrolo[2,3-e][1,2,4]triazolo[4,3-a]pyridin-7-yl)-1H-pyrazol-1-yl]azetidin-3-yl}acetonitrile]",≤ 1

row,Structure (SMILES),IC50 [µM]
1,"CC(=O)N1CC(CC#N)(n2ccc(-c3cc4c(ccc5nnc(C)n54)n3Cc3ccccc3)n2)C1 [Example 91, {1-acetyl-3-[3-(6-benzyl-1-methyl-66H-pyrrolo[2,3-e][1,2,4]triazolo[4,3-a]pyridin-7-yl)-1H-pyrazol-1-yl]azetidin-3-yl}acetonitrile]",≤ 1
2,"Cc1nnc2ccc3c(cc(-c4ccn(C5(CC#N)CN(S(C)(=O)=O)C5)n4)n3Cc3ccccc3)n12 [Example 92, [3-[3-(6-benzyl-1-methyl-6H-pyrrolo[2,3-e][1,2,4]triazolo[4,3-a]pyridin-7-yl)-1H-pyrazol-1-yl]-1-(methylsulfonyl)azetidin-3-yl]acetonitrile]",≤ 1
3,"Cc1nnc2ccc3c(cc(-c4ccn(C5(CC#N)CN(C)C5)n4)n3Cc3ccccc3)n12 [Example 93, {3-[3-(6-benzyl-1-methyl-6H-pyrrolo[2,3-e][1,2,4]triazolo[4,3-a]pyridin-7-yl)-1H-pyrazol-1-yl]-1-methylazetidin-3-yl}acetonitrile]",≤ 1
4,"Cc1nnc2ccc3c(cc(-c4ccn(CCC(=O)N(C)C)n4)n3Cc3ccccc3)n12 [Example 95, 3-[3-(6-benzyl-1-methyl-6H-pyrrolo[2,3-e][1,2,4]triazolo[4,3-a]pyridin-7-yl)-1H-pyrazol-1-yl]-N,N-dimethylpropanamide]",≤ 1
5,"CCNC(=O)CCn1ccc(-c2cc3c(ccc4nnc(C)n43)n2Cc2ccccc2)n1 [Example 96, 3-[3-(6-benzyl-1-methyl-6H-pyrrolo[2,3-e][1,2,4]triazolo[4,3-a]pyridin-7-yl)-1H-pyrazol-1-yl]-N-ethylpropanamide]",≤ 1
6,"CNC(=O)CCn1ccc(-c2cc3c(ccc4nnc(C)n43)n2Cc2ccccc2)n1 [Example 97, 3-[3-(6-benzyl-1-methyl-6H-pyrrolo[2,3-e][1,2,4]triazolo[4,3-a]pyridin-7-yl)-1H-pyrazol-1-yl]-N-methylpropanamide]",≤ 1
7,"Cc1nnc2ccc3c(cc(-c4ccn(CCC(N)=O)n4)n3Cc3ccccc3)n12 [Example 98, 3-[3-(6-benzyl-1-methyl-6H-pyrrolo[2,3-e][1,2,4]triazolo[4,3-a]pyridin-7-yl)-1H-pyrazol-1-yl]propanamide]",≤ 1
8,"CNC(=O)c1cc2c(ccc3nnc(C)n32)n1Cc1cccc(Cl)c1 [Example 99, 6-(3-chlorobenzyl)-N,1-dimethyl-6H-pyrrolo[2,3-e][1,2,4]triazolo[4,3-a]pyridine-7-carboxamide]",≤ 1
9,"Cc1nnc2ccc3c(cc(C(=O)N[C@H]4C[C@H](C#N)C4)n3Cc3ccccc3)n12 [Example 100, 6-benzyl-N-(trans-3-cyanocyclobutyl)-1-methyl-6H-pyrrolo[2,3-e][1,2,4]triazolo[4,3-a]pyridine-7-carboxamide]",1 to 10
10,"Cc1nnc2ccc3c(cc(C(=O)N[C@H]4C[C@@H](C#N)C4)n3Cc3ccccc3)n12 [Example 101, 6-benzyl-N-(cis-3-cyanocyclobutyl)-1-methyl-6H-pyrrolo[2,3-e][1,2,4]triazolo[4,3-a]pyridine-7-carboxamide]",1 to 10
11,"CNC(=O)c1cc2c(ccc3nnc(C)n32)n1Cc1cccc(F)c1 [Example 102, 6-(3-fluorobenzyl)-N,1-dimethyl-6H-pyrrolo[2,3-e][1,2,4]triazolo[4,3-a]pyridine-7-carboxamide]",≤ 1
12,"Cc1nnc2ccc3c(cc(-c4ccn(CCC(=O)N5CCC5)n4)n3Cc3cccc(Cl)c3)n12 [Example 104, 7-[1-(3-azetidin-1-yl-3-oxopropyl)-1H-pyrazol-3-yl]-6-(3-chlorobenzyl)-1-methyl-6H-pyrrolo[2,3-e][1,2,4]triazolo[4,3-a]pyridine]",≤ 1
13,"Cc1nnc2ccc3c(cc(-c4ccn(CCC(=O)N5CCN(C)CC5)n4)n3Cc3cccc(Cl)c3)n12 [Example 105, 6-(3-chlorobenzyl)-1-methyl-7-{1-[3-(4-methylpiperazin-1-yl)-3-oxopropyl]-1H-pyrazol-3-yl}-6H-pyrrolo[2,3-e][1,2,4]triazolo[4,3-a]pyridine]",≤ 1
14,"CC(=O)N1CC(CC#N)(n2ccc(-c3cc4c(ccc5nnc(C)n54)n3Cc3cccc(Cl)c3)n2)C1 [Example 106, (1-acetyl-3-{3-[6-(3-chlorobenzyl)-1-methyl-6H-pyrrolo[2,3-e][1,2,4]triazolo[4,3-a]pyridin-7-yl]-1H-pyrazol-1-yl}azetidin-3-yl)acetonitrile]",≤ 1
15,"Cc1nnc2ccc3c(cc(-c4ccn(C5(CC#N)CN(S(C)(=O)=O)C5)n4)n3Cc3cccc(Cl)c3)n12 [Example 107, [3-{3-[6-(3-chlorobenzyl)-1-methyl-6H-pyrrolo[2,3-e][1,2,4]triazolo[4,3-a]pyridin-7-yl]-1H-pyrazol-1-yl}-1-(methylsulfonyl)azetidin-3-yl]acetonitrile]",≤ 1
16,"CC(=O)N1CC(n2ccc(-c3cc4c(ccc5nnc(C)n54)n3Cc3cccc(Cl)c3)n2)C1 [Example 108, 7-[1-(1-acetylazetidin-3-yl)-1H-pyrazol-3-yl]-6-(3-chlorobenzyl)-1-methyl-6H-pyrrolo[2,3-e][1,2,4]triazolo[4,3-a]pyridine]",≤ 1

# Same assay, conditions: KMS.12.BM human myeloma cells, 3 days, Cell Titer-GLO ATP quantitation; read-out: KMS cellular IC50
row,Structure (SMILES),IC50 [µM]
1,"Cc1nnc2ccc3c(cc(-c4ccn(CCC(=O)N(C)C)n4)n3Cc3cccc(Cl)c3)n12 [Example 103, 3-{3-[6-(3-chlorobenzyl)-1-methyl-6H-pyrrolo[2,3-e][1,2,4]triazolo[4,3-a]pyridin-7-yl]-1H-pyrazol-1-yl}-N,N-dimethylpropanamide]",≤ 1
